# Laboratory results taken from US9907797B2, “Combination therapies for overcoming resistance to mitotic agents during chemotherapy” (EMORY UNIVERSITY, priority 2014, dated 2018).
# Peptide text beside a SMILES is read from it. * marks the point of attachment. Cbz = O=C(OCc1ccccc1)*
# Key:
# Type in all cases: cell-based
# [1] = system: A549, EKVX, H596, H522, Hop-62, H460 and H2023; experiment: Cytotoxicity assays with docetaxel and ABT-888 in seven lung cancer cell lines
# Procedure: Hypothesizing that PARP-inhibition could induce synergistic cytotoxicity in CHFR expressing lung cancer cell lines, cytotoxicity assays were performed in seven lung cancer cell lines (A549, EKVX, H596, H522, Hop-62, H460 and H2023) using docetaxel and the PARP-inhibitor ABT-888 either alone or in combination.
# CHFR = experiment: wt-CHFR and CHFR-PBZ* protein levels in transfected Calu-6 cells
# From the text: To determine if disruption of the CHFR-PARP1 interaction forces CHFR degradation by auto-ubiquitination and subsequent proteasomal degradation, wild-type and the CHFR-PBZ mutant were expressed in the presence and absence of the proteasome inhibitor MG-132 (FIG. 1H) or after the additional deletion of the RING domain (FIG. 1I) in Calu-6 cells.
# PARP1-CHFR interaction = target: T1, PARP1-CHFR interaction (Homo sapiens, UniProt Q96EP1); experiment: Glutathione affinity pull-down of GST tagged PARP1 with CHFR in HEK293 cells; conditions: 10 uM, 16 hours
# T1 construct: expressed in transfected cells; CHFR endogenous
# T1 sequence (Q96EP1 1-664): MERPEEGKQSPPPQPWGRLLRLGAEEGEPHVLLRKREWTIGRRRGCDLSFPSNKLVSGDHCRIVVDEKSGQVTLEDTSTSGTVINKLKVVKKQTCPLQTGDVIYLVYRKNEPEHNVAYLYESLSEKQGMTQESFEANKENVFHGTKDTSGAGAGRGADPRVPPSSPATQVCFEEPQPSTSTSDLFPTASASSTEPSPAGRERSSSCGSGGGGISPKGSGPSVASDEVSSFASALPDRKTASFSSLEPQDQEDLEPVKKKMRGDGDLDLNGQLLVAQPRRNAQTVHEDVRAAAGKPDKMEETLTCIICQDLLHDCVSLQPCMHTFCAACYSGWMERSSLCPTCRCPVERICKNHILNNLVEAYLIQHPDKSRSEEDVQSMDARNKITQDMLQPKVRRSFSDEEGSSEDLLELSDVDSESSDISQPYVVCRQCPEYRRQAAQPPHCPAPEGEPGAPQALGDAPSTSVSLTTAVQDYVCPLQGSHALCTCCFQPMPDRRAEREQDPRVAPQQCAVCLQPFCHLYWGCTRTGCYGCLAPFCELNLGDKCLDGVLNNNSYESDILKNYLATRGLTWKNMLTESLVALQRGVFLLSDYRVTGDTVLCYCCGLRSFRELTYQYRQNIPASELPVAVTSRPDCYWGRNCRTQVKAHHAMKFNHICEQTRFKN
# Procedure: In an attempt to generate possible lead compounds for the pharmacologic inhibition of the CHFR-PARP1 interaction, a high throughput computational screen of 5,256,508 chemical structures in the MCULE database of purchasable compounds using the AutoDockVina algorithm against the published crystal structure of the CHFR-PBZ domain was performed. The 10 most promising ‘hits’ based on Autodock Vina docking scores (<−9.7) were selected for further characterization. Commercially available compounds were tested for their impact on nuclear CHFR levels (FIG. 3A). Several compounds, including ‘A2’, ‘A3’, ‘A4’ and ‘A6’ decreased CHFR levels assayed by western blotting of whole cell extracts. The impact of the above referenced compounds on the PARP1/CHFR interaction were evaluated. HEK293 cells were transfected with GST tagged PARP1 and the interaction with CHFR determined in pull down assays for those 4 compounds. […] In contrast to treatment with ABT-888, ‘A3’ completely disrupted the interaction between GST-tagged PARP-1 and CHFR (FIG. 3B). […] Since it is possible that the co-immunoprecipitation between PARP-1 and CHFR after ‘A3’ treatment was negative due to the fact that CHFR was degraded, the experiment was repeated after transfection with the Ring-domain deleted ΔR-CHFR construct, which maintained both stable CHFR and PARP1 levels even after treatment with ‘A3’. […]
# Calu-6 NSCLC cells = experiment: XTT assay with docetaxel in transfected Calu-6 cells; conditions: docetaxel 72 hours, Calu-6 with wt-CHFR vs empty vector and CHFR-PBZ*, p<0.05
# Procedure: The effect of Docetaxel after 72 hours was established by XTT assay.
# In Hela cells, full length, but not PBZ-mutant CHFR has similar cell cycle effects. To determine the functional relevance of the PBZ domain on taxane resistance in NSCLC CHFR deficient CALU-6 cells were transfected with either with full-length CHFR (pDEST40-wt-CHFR) or PBZ mutant CHFR (pDEST40-CHFR-PBZ*).
# CHFR-PARP1 interaction = experiment: Interaction between GST-tagged PARP1 and CHFR in synchronized cells; conditions: microtubular damage induced with docetaxel, G2/M phase
# Procedure: (§1) The functional significance of the interaction between CHFR and PARP1 in antephase checkpoint control and taxane sensitivity was evaluated. HEK293 cells were transfected with a GST-tagged PARP1, synchronized with aphidocholin, and the interaction between GST-tagged PARP1 and CHFR was analyzed at various stages of the cell cycle (FIG. 2A, 2B). […] To determine the effect on taxane sensitivity, XTT assays were performed in A549 cells stably transfected with either shRNAs specifically targeting CHFR or PARP1 or control shRNAs (scrambled or luciferase targeting respectively).
# A549 cells = experiment: XTT assays with docetaxel in A549 cells stably transfected with shRNAs
# Procedure: as §1
compound,measurement,setting,value
C[C@]1(c2nc3c(C(N)=O)cccc3[nH]2)CCCN1 [ABT-888],"cytostasis, docetaxel combined with ABT-888",[1]; ABT-888 20 uM,did not lead to enhanced cytostasis
same,"synergy of docetaxel and ABT-888, cytotoxicity","[1]; seven lung cancer cell lines, alone or in combination",Synergy was not observed in any of the cell lines
same,CHFR protein levels,"CHFR; Calu-6 cells, wt-CHFR or CHFR-PBZ*",did not result in altered CHFR protein levels
same,interaction between PARP1 and CHFR,PARP1-CHFR interaction,nor did it disrupt the interaction between CHFR and PARP-1
CC(C)C[C@@H](C=O)NC(=O)[C@H](CC(C)C)NC(=O)[C@H](CC(C)C)NC(=O)OCc1ccccc1 [MG-132] (Cbz-Leu-Leu-Leu-aldehyde),CHFR-PBZ* protein levels,"CHFR; Calu-6 cells stably transfected with CHFR-PBZ*, proteasomal inhibition",increases CHFR-PBZ* protein levels
CC(=O)O[C@@]12CO[C@@H]1C[C@H](O)[C@@]1(C)C(=O)[C@H](O)C3=C(C)[C@@H](OC(=O)[C@H](O)[C@@H](NC(=O)OC(C)(C)C)c4ccccc4)C[C@@](O)([C@@H](OC(=O)c4ccccc4)[C@H]21)C3(C)C [docetaxel],taxane resistance (XTT),Calu-6 NSCLC cells,Stable transfection of wt-CHFR increases taxane resistance
same,interaction between GST-tagged PARP1 and CHFR,CHFR-PARP1 interaction,further enhances this interaction
same,sensitivity to docetaxel (XTT),A549 cells; CHFR-deficient A549 cells relative to scrambled control,increased sensitivity to docetaxel
same,sensitivity to docetaxel (XTT),A549 cells; PARP1 deficient A549 cells relative to control shRNA,also showed increased sensitivity to docetaxel
